PubChem BioAssay AID1259335

tested on: C. elegans L1 growth, INVAPP imaging, 5 days; experiment: C. elegans growth inhibition, confirmation, whole organism (AID 1259335)

| SMILES | EC50 |
| --- | --- |
| O=C(Nc1ccc2c(c1)B(O)OC2)c1ccccc1C(F)(F)F | 4300 nM |
| COC(=O)C1=C(C)NC(C)=C(C(=O)OC(C)C)[C@H]1c1cccc2nonc12 | 1600 nM |
| Nc1ccc(C(=O)Nc2ccc(-c3nc4ccccc4o3)cc2)cc1 | 6200 nM |
| Cc1cc(C(=O)Nc2ccc(-c3ccccc3)cc2)no1 | 2500 nM |
| COC(=O)Nc1nc2ccc(C(=O)c3ccccc3)cc2[nH]1 | 1100 nM |
| CCc1nn(C)c(C(=O)NCc2ccc(Oc3ccc(C)cc3)cc2)c1Cl | 200 nM |
| O=C(Nc1ccc(F)c(-c2nc3ncc(-c4ccccc4)cc3[nH]2)c1)N1CCCC1 | 3300 nM |
